Assay results published in PubChem BioAssay (NCI).
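All cell lines were grown in 96-well plates and treated with compound for 48 hours. TGI: concentration producing complete growth inhibition.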

What was measured:
Experiment in all cases: growth of human tumour cells (NCI), 48 h
HS 578T breast = tested on: HS 578T breast
OVCAR-5 ovarian = tested on: OVCAR-5 ovarian
OVCAR-4 ovarian = tested on: OVCAR-4 ovarian
SK-OV-3 ovarian = tested on: SK-OV-3 ovarian
MCF7 breast = tested on: MCF7 breast
SN12C renal = tested on: SN12C renal
TK-10 renal = tested on: TK-10 renal
SR leukemia = tested on: SR leukemia
NCI-H460 lung = tested on: NCI-H460 lung
OVCAR-8 ovarian = tested on: OVCAR-8 ovarian
786-0 renal = tested on: 786-0 renal
K-562 leukemia = tested on: K-562 leukemia
XF 498 CNS = tested on: XF 498 CNS
LOX IMVI melanoma = tested on: LOX IMVI melanoma
HOP-92 NSCLC = tested on: HOP-92 NSCLC
SK-MEL-28 melanoma = tested on: SK-MEL-28 melanoma
SNB-78 CNS = tested on: SNB-78 CNS
HCT-15 colon = tested on: HCT-15 colon
HL-60(TB) leukemia = tested on: HL-60(TB) leukemia
SK-MEL-2 melanoma = tested on: SK-MEL-2 melanoma
UACC-257 melanoma = tested on: UACC-257 melanoma
DMS 273 small cell lung = tested on: DMS 273 small cell lung
NCI-H522 lung = tested on: NCI-H522 lung
CCRF-CEM leukemia = tested on: CCRF-CEM leukemia
NCI/ADR-RES ovarian = tested on: NCI/ADR-RES ovarian
CAKI-1 renal = tested on: CAKI-1 renal
NCI-H23 lung = tested on: NCI-H23 lung
M19-MEL melanoma = tested on: M19-MEL melanoma
IGROV1 ovarian = tested on: IGROV1 ovarian
LXFL 529 NSCLC = tested on: LXFL 529 NSCLC
SK-MEL-5 melanoma = tested on: SK-MEL-5 melanoma
HT29 colon = tested on: HT29 colon
M14 melanoma = tested on: M14 melanoma
KM20L2 colon = tested on: KM20L2 colon
OVCAR-3 ovarian = tested on: OVCAR-3 ovarian
HCT-116 colon = tested on: HCT-116 colon
PC-3 prostate = tested on: PC-3 prostate
SNB-75 CNS = tested on: SNB-75 CNS
EKVX NSCLC = tested on: EKVX NSCLC
DLD-1 colon = tested on: DLD-1 colon
MALME-3M melanoma = tested on: MALME-3M melanoma
UO-31 renal = tested on: UO-31 renal
U251 CNS = tested on: U251 CNS
RPMI-8226 leukemia = tested on: RPMI-8226 leukemia
MDA-N = tested on: MDA-N
MDA-MB-231 breast = tested on: MDA-MB-231 breast
T-47D breast = tested on: T-47D breast
BT-549 breast = tested on: BT-549 breast
DU-145 prostate = tested on: DU-145 prostate
COLO 205 colon = tested on: COLO 205 colon
HCC-2998 colon = tested on: HCC-2998 colon
HOP-62 NSCLC = tested on: HOP-62 NSCLC
A549 NSCLC = tested on: A549 NSCLC
RXF 393 renal = tested on: RXF 393 renal
SF-268 CNS = tested on: SF-268 CNS
HOP-18 NSCLC = tested on: HOP-18 NSCLC
ACHN renal = tested on: ACHN renal
DMS 114 small cell lung = tested on: DMS 114 small cell lung
KM12 colon = tested on: KM12 colon
UACC-62 melanoma = tested on: UACC-62 melanoma
A498 renal = tested on: A498 renal
NCI-H226 lung = tested on: NCI-H226 lung
MOLT-4 leukemia = tested on: MOLT-4 leukemia
SF-539 CNS = tested on: SF-539 CNS
SW-620 colon = tested on: SW-620 colon
SNB-19 CNS = tested on: SNB-19 CNS
SF-295 CNS = tested on: SF-295 CNS
MDA-MB-435 = tested on: MDA-MB-435

## CCNCCCCNCCCCNCCCCNCCCCNCC
HS 578T breast
  TGI: 26.3 µM
OVCAR-5 ovarian
  TGI: > 100 µM
OVCAR-4 ovarian
  TGI: > 100 µM
SK-OV-3 ovarian
  TGI: > 100 µM
MCF7 breast
  TGI: > 100 µM
SN12C renal
  TGI: > 100 µM
TK-10 renal
  TGI: > 56.2 µM
SR leukemia
  TGI: > 100 µM
NCI-H460 lung
  TGI: > 100 µM
OVCAR-8 ovarian
  TGI: > 100 µM
786-0 renal
  TGI: 98.6 µM
K-562 leukemia
  TGI: > 100 µM
XF 498 CNS
  TGI: > 100 µM
LOX IMVI melanoma
  TGI: > 100 µM
HOP-92 NSCLC
  TGI: > 100 µM
SK-MEL-28 melanoma
  TGI: 52.6 µM
SNB-78 CNS
  TGI: > 100 µM
HCT-15 colon
  TGI: > 100 µM
HL-60(TB) leukemia
  TGI: > 100 µM
SK-MEL-2 melanoma
  TGI: > 100 µM
UACC-257 melanoma
  TGI: 81.3 µM
DMS 273 small cell lung
  TGI: > 100 µM
NCI-H522 lung
  TGI: > 100 µM
CCRF-CEM leukemia
  TGI: > 100 µM
NCI/ADR-RES ovarian
  TGI: > 100 µM
CAKI-1 renal
  TGI: > 73.1 µM
NCI-H23 lung
  TGI: > 100 µM
M19-MEL melanoma
  TGI: > 100 µM
IGROV1 ovarian
  TGI: > 100 µM
LXFL 529 NSCLC
  TGI: > 100 µM
SK-MEL-5 melanoma
  TGI: > 100 µM
HT29 colon
  TGI: > 100 µM
M14 melanoma
  TGI: > 100 µM
KM20L2 colon
  TGI: > 100 µM
OVCAR-3 ovarian
  TGI: > 100 µM
HCT-116 colon
  TGI: > 100 µM
PC-3 prostate
  TGI: > 100 µM
SNB-75 CNS
  TGI: 78.4 µM
EKVX NSCLC
  TGI: > 100 µM
DLD-1 colon
  TGI: > 100 µM
MALME-3M melanoma
  TGI: 31.5 µM
UO-31 renal
  TGI: > 100 µM
U251 CNS
  TGI: > 100 µM
RPMI-8226 leukemia
  TGI: > 100 µM
MDA-N
  TGI: 61.8 µM
MDA-MB-231 breast
  TGI: > 100 µM
T-47D breast
  TGI: > 100 µM
BT-549 breast
  TGI: > 100 µM
DU-145 prostate
  TGI: > 100 µM
COLO 205 colon
  TGI: > 100 µM
HCC-2998 colon
  TGI: > 100 µM
HOP-62 NSCLC
  TGI: > 100 µM
A549 NSCLC
  TGI: > 100 µM
RXF 393 renal
  TGI: > 52.6 µM
SF-268 CNS
  TGI: > 77.7 µM
HOP-18 NSCLC
  TGI: > 100 µM
ACHN renal
  TGI: > 100 µM
DMS 114 small cell lung
  TGI: > 100 µM
KM12 colon
  TGI: > 100 µM
UACC-62 melanoma
  TGI: 43.8 µM
A498 renal
  TGI: > 100 µM
NCI-H226 lung
  TGI: > 100 µM
MOLT-4 leukemia
  TGI: > 100 µM
SF-539 CNS
  TGI: > 100 µM
SW-620 colon
  TGI: > 100 µM
SNB-19 CNS
  TGI: > 100 µM
SF-295 CNS
  TGI: > 100 µM
MDA-MB-435
  TGI: 38.6 µM
